PMC8371902, “Phase 1 study of M2698, a p70S6K/AKT dual inhibitor, in patients with advanced cancer” (Journal of Hematology & Oncology, 2021)
Where two headings read alike, the source gives them in different places.

Test system: patients with advanced metastatic cancer
Excerpt: In this phase 1 study, dose escalation was followed by expansion cohorts of once-daily, oral M2698 in continuous 21-day cycles. Primary objectives were to determine the maximum tolerated dose (MTD), dose-limiting toxicities (DLTs), and recommended phase 2 dose (RP2D). Secondary objectives were to assess safety and tolerability, pharmacokinetics (PK, including food effect) and antitumor activity. Pharmacodynamic biomarker assessments were exploratory. Treatment was discontinued if there was disease progression, toxicity or consent withdrawal.
In Part 1, M2698 monotherapy was investigated in a dose escalation with a food effect cohort. In Part 2, M2698 was investigated as monotherapy (expansion cohort) to further characterize safety, tolerability and pharmacokinetics, and assess antitumor activity in PAM + patients without confounding markers (exploratory).
Dose escalation analysis included all patients who experienced a DLT and those who received ≥ 80% of planned M2698 doses in cycle 1 without experiencing a DLT. Safety analysis included all patients who received ≥ 1 dose of M2698. PK analysis included all patients who received ≥ 1 dose of M2698 and had measurable plasma concentrations. Dose proportionality was tested using the power model (linear regression approach on the log -transformed scale).

NC(=O)c1cccc2c(N[C@H](CN3CCC3)c3ccc(Cl)c(C(F)(F)F)c3)ncnc12 [M2698]
M2698-related TEAE: Pruritus generalised (240 mg n=17): 0
M2698-related TEAE: Psychiatric disorders (240 mg n=17): 3
M2698-related TEAE: Rash (240 mg n=17): 0
M2698-related TEAE: Rash maculo-papular (240 mg n=17): 0
M2698-related TEAE: Skin and subcutaneous tissue disorders (240 mg n=17): 0
M2698-related TEAE: Subjects with at least one event (240 mg n=17): 9
M2698-related TEAE: Transaminases increased (240 mg n=17): 0
M2698-related TEAE: Tremor (240 mg n=17): 1
M2698-related TEAE: Vision blurred (240 mg n=17): 0
M2698-related TEAE: Vomiting (240 mg n=17): 1
M2698-related TEAE: White blood cell count decreased (240 mg n=17): 0
M2698-related TEAE: Abnormal dreams (320 mg n=12): 2
M2698-related TEAE: Affect lability (320 mg n=12): 0
M2698-related TEAE: Alanine aminotransferase increased (320 mg n=12): 0
M2698-related TEAE: Amylase increased (320 mg n=12): 0
M2698-related TEAE: Anaemia (320 mg n=12): 1
M2698-related TEAE: Angina pectoris (320 mg n=12): 0
M2698-related TEAE: Anxiety (320 mg n=12): 1
M2698-related TEAE: Aphasia (320 mg n=12): 1
M2698-related TEAE: Ataxia (320 mg n=12): 1
M2698-related TEAE: Blood and lymphatic system disorders (320 mg n=12): 1
M2698-related TEAE: Blood creatine phosphokinase increased (320 mg n=12): 0
M2698-related TEAE: Blood creatinine increased (320 mg n=12): 1
M2698-related TEAE: Cardiac disorders (320 mg n=12): 0
M2698-related TEAE: Cognitive disorder (320 mg n=12): 0
M2698-related TEAE: Constipation (320 mg n=12): 2
M2698-related TEAE: Decreased appetite (320 mg n=12): 1
M2698-related TEAE: Delusion (320 mg n=12): 1
M2698-related TEAE: Depression (320 mg n=12): 1
M2698-related TEAE: Diarrhoea (320 mg n=12): 4
M2698-related TEAE: Diarrhoea haemorrhagic (320 mg n=12): 0
M2698-related TEAE: Dizziness (320 mg n=12): 0
M2698-related TEAE: Dry eye (320 mg n=12): 0
M2698-related TEAE: Dry mouth (320 mg n=12): 0
M2698-related TEAE: Dysgeusia (320 mg n=12): 0
M2698-related TEAE: Dyspepsia (320 mg n=12): 1
M2698-related TEAE: Dysphagia (320 mg n=12): 0
M2698-related TEAE: Energy increased (320 mg n=12): 0
M2698-related TEAE: Erythema (320 mg n=12): 0
M2698-related TEAE: Euphoric mood (320 mg n=12): 0
M2698-related TEAE: Eye disorders (320 mg n=12): 0
M2698-related TEAE: Fatigue (320 mg n=12): 1
M2698-related TEAE: Gamma-glutamyltransferase increased (320 mg n=12): 0
M2698-related TEAE: Gastrointestinal disorders (320 mg n=12): 8
M2698-related TEAE: Gastrooesophageal reflux disease (320 mg n=12): 0
M2698-related TEAE: General disorders and administration site conditions (320 mg n=12): 2
M2698-related TEAE: Headache (320 mg n=12): 0
M2698-related TEAE: Hyperhidrosis (320 mg n=12): 1
M2698-related TEAE: Hypokalaemia (320 mg n=12): 1
M2698-related TEAE: Hypomagnesaemia (320 mg n=12): 1
M2698-related TEAE: Insomnia (320 mg n=12): 1
M2698-related TEAE: Investigations (320 mg n=12): 1
M2698-related TEAE: Lipase increased (320 mg n=12): 0
M2698-related TEAE: Lymphopenia (320 mg n=12): 0
M2698-related TEAE: Metabolism and nutrition disorders (320 mg n=12): 2
M2698-related TEAE: Mucosal inflammation (320 mg n=12): 1
M2698-related TEAE: Nausea (320 mg n=12): 6
M2698-related TEAE: Nervous system disorders (320 mg n=12): 4
M2698-related TEAE: Nightmare (320 mg n=12): 0
M2698-related TEAE: Onychomadesis (320 mg n=12): 0
M2698-related TEAE: Paranoia (320 mg n=12): 1
M2698-related TEAE: Photosensitivity reaction (320 mg n=12): 1
M2698-related TEAE: Posterior reversible encephalopathy syndrome (320 mg n=12): 0
M2698-related TEAE: Pruritus generalised (320 mg n=12): 1
M2698-related TEAE: Psychiatric disorders (320 mg n=12): 3
M2698-related TEAE: Rash (320 mg n=12): 0
M2698-related TEAE: Rash maculo-papular (320 mg n=12): 0
M2698-related TEAE: Skin and subcutaneous tissue disorders (320 mg n=12): 3
M2698-related TEAE: Subjects with at least one event (320 mg n=12): 9
M2698-related TEAE: Transaminases increased (320 mg n=12): 0
M2698-related TEAE: Tremor (320 mg n=12): 3
M2698-related TEAE: Vision blurred (320 mg n=12): 0
M2698-related TEAE: Vomiting (320 mg n=12): 0
M2698-related TEAE: White blood cell count decreased (320 mg n=12): 0
M2698-related TEAE: Abnormal dreams (380 mg n=4): 0
M2698-related TEAE: Affect lability (380 mg n=4): 0
M2698-related TEAE: Alanine aminotransferase increased (380 mg n=4): 0
M2698-related TEAE: Amylase increased (380 mg n=4): 0
M2698-related TEAE: Anaemia (380 mg n=4): 0
M2698-related TEAE: Angina pectoris (380 mg n=4): 0
M2698-related TEAE: Anxiety (380 mg n=4): 0
M2698-related TEAE: Aphasia (380 mg n=4): 0
M2698-related TEAE: Ataxia (380 mg n=4): 0
M2698-related TEAE: Blood and lymphatic system disorders (380 mg n=4): 0
M2698-related TEAE: Blood creatine phosphokinase increased (380 mg n=4): 1
M2698-related TEAE: Blood creatinine increased (380 mg n=4): 0
M2698-related TEAE: Cardiac disorders (380 mg n=4): 0
M2698-related TEAE: Cognitive disorder (380 mg n=4): 0
M2698-related TEAE: Constipation (380 mg n=4): 0
M2698-related TEAE: Decreased appetite (380 mg n=4): 0
M2698-related TEAE: Delusion (380 mg n=4): 0
M2698-related TEAE: Depression (380 mg n=4): 0
M2698-related TEAE: Diarrhoea (380 mg n=4): 0
M2698-related TEAE: Diarrhoea haemorrhagic (380 mg n=4): 1
M2698-related TEAE: Dizziness (380 mg n=4): 0
M2698-related TEAE: Dry eye (380 mg n=4): 0
M2698-related TEAE: Dry mouth (380 mg n=4): 0
M2698-related TEAE: Dysgeusia (380 mg n=4): 0
M2698-related TEAE: Dyspepsia (380 mg n=4): 0
